Earlier results in patent US20220168301A1, “METHODS FOR TREATING SYMPTOMATIC ORTHOSTATIC HYPOTENSION” (Cerecor Inc, priority 2019, published 2022).

System: patients with nOH
Conditions: Phase III clinical trials; cited from earlier work

N[C@H](C(=O)O)[C@H](O)c1ccc(O)c(O)c1 [droxidopa, L-threo-3,4-dihydroxyphenyl-serine]
Standing systolic blood pressure: increase in standing systolic blood pressure
Symptoms of nOH (dizziness, lightheadedness or feeling about to faint): significant improvement in symptoms of nOH
